Legend:
[1] = target: full-length RORγt in Jurkat cells (Homo sapiens (Human), UniProt P51449); test: RORγt 5×RORE Assay in Jurkat Cells (Assay 2); format: cell-based; conditions: 5×RORE Nanoluc luciferase reporter
[2] = target: recombinant RORγ Ligand Binding Domain (LBD) protein (Homo sapiens (Human), UniProt P51449); test: Radio-Ligand RORγ Binding Assay (Assay 1); conditions: competition with 25-hydroxy [26,27-3H]-cholesterol, SPA
In short: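 Scintillation proximity competition against 25-hydroxy [26,27-^3H]-cholesterol (8.6 nM solution) for 6×His-GST-tagged RORγ LBD (24 nM solution) in HEPES pH 7.4 with CHAPS, β-octylglucopyranoside and DTT; semi-log compound dilutions, ~1 h total at rt with poly-Lys YSi beads. IC50 from four-parameter fit; Ki derived from [RL] and radioligand KD.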

recombinant RORγ Ligand Binding Domain (LBD) protein, sequence (P51449 269-508): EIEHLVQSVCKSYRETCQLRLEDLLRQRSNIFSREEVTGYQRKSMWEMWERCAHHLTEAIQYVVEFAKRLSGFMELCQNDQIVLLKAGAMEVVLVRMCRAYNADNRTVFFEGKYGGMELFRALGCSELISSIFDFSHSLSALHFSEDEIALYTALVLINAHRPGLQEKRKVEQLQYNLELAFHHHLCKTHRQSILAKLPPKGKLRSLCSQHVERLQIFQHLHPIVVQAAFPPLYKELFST
full-length RORγt in Jurkat cells, sequence (P51449 other isoform, or with tags, fused parts or gaps): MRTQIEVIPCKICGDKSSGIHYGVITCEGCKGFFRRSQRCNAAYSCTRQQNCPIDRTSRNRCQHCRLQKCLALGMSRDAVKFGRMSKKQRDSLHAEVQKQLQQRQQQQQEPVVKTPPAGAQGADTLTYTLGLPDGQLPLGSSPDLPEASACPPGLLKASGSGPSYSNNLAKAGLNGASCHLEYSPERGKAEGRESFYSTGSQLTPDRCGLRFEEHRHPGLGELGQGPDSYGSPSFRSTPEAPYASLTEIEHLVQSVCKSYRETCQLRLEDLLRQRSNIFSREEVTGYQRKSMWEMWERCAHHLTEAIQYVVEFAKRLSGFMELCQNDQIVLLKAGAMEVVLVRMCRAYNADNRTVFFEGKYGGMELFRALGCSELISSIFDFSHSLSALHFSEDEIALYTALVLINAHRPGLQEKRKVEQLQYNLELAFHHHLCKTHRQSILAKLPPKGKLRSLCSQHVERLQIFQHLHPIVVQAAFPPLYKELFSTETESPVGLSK

| IC50 [1] | Ki [2] | SMILES |
| --- | --- | --- |
| < 100 nM | < 100 nM | CCS(=O)(=O)c1ccc([C@H](CO)NC(=O)c2ccc3c(c2)nc(C2CCC2)n3Cc2cccc3c2OC(F)(F)O3)nc1 [I-132.1, (R)-2-cyclobutyl-1-((2,2-difluorobenzo[d][1,3]dioxol-4-yl)methyl)-N-(1-(5-(ethylsulfonyl)pyridin-2-yl)-2-hydroxyethyl)-1H-benzo[d]imidazole-5-carboxamide] |
| 100 to 1000 nM | < 100 nM | CCS(=O)(=O)c1ccc(CNC(=O)c2ccc3c(c2)nc(C(F)(F)F)n3Cc2nc(C)cc(C(F)(F)F)n2)cc1 [I-138, N-(4-(ethylsulfonyl)benzyl)-1-((4-methyl-6-(trifluoromethyl)pyrimidin-2-yl)methyl)-2-(trifluoromethyl)-1H-benzo[d]imidazole-5-carboxamide] |
| < 100 nM | < 100 nM | COC(=O)CS(=O)(=O)N1CCC(CNC(=O)c2ccc3c(c2)nc(C(F)(F)F)n3Cc2cccc3[nH]ncc23)CC1 [I-127, methyl 2-((4-((1-((1H-indazol-4-yl)methyl)-2-(trifluoromethyl)-1H-benzo[d]imidazole-5-carboxamido)methyl)piperidin-1-yl)sulfonyl)acetate] |
| < 100 nM | < 100 nM | CCS(=O)(=O)c1ccc(CNC(=O)c2ccc3c(c2)nc(C2CC2)n3Cc2cc(O)cc(OC(F)(F)F)c2)cc1 [I-153, 2-cyclopropyl-N-(4-(ethylsulfonyl)benzyl)-1-(3-hydroxy-5-(trifluoromethoxy)benzyl)-1H-benzo[d]imidazole-5-carboxamide] |
| < 100 nM | < 100 nM | CCS(=O)(=O)c1ccc([C@H](CC(=O)NC)NC(=O)c2ccc3c(c2)nc(C(F)(F)F)n3Cc2cccc3c2OC(F)(F)O3)cc1 [I-167, (S)-1-((2,2-difluorobenzo[d][1,3]dioxol-4-yl)methyl)-N-(1-(4-(ethylsulfonyl)phenyl)-3-(methylamino)-3-oxopropyl)-2-(trifluoromethyl)-1H-benzo[d]imidazole-5-carboxamide] |
| < 100 nM | < 100 nM | CCS(=O)(=O)c1ccc([C@H](CC(N)=O)NC(=O)c2ccc3c(c2)nc(C(F)(F)F)n3Cc2cccc3c2OC(F)(F)O3)cc1 [I-168, (S)-N-(3-amino-1-(4-(ethylsulfonyl)phenyl)-3-oxopropyl)-1-((2,2-difluorobenzo[d][1,3]dioxol-4-yl)methyl)-2-(trifluoromethyl)-1H-benzo[d]imidazole-5-carboxamide] |
| < 100 nM | < 100 nM | CCS(=O)(=O)c1ccc(C(O)C(=O)Nc2ccc3c(c2)nc(C(F)(F)F)n3Cc2cccc3c2OC(F)(F)O3)cc1 (centres unmarked) [I-170, N-(1-((2,2-difluorobenzo[d][1,3]dioxol-4-yl)methyl)-2-(trifluoromethyl)-1H-benzo[d]imidazol-5-yl)-2-(4-(ethylsulfonyl)phenyl)-2-hydroxyacetamide] |
| < 100 nM | < 100 nM | CCS(=O)(=O)c1ccc(CNC(=O)c2ccc3c(c2)nc(C(F)(F)F)n3Cc2cccc(OC)c2F)cc1 [I-136, N-(4-(ethylsulfonyl)benzyl)-1-(2-fluoro-3-methoxybenzyl)-2-(trifluoromethyl)-1H-benzo[d]imidazole-5-carboxamide] |
| 100 to 1000 nM | > 1000 nM | CCS(=O)(=O)c1ccc(CNC(=O)c2ccc3c(c2)nc(C(F)(F)F)n3Cc2cccc3c2cnn3C)cc1 [I-141, N-(4-(ethylsulfonyl)benzyl)-1-((1-methyl-1H-indazol-4-yl)methyl)-2-(trifluoromethyl)-1H-benzo[d]imidazole-5-carboxamide] |
| > 1000 nM | < 100 nM | CCS(=O)(=O)c1ccc([C@H](COCC(=O)O)NC(=O)c2ccc3c(c2)nc(C(F)(F)F)n3Cc2cccc3c2OC(F)(F)O3)cc1 [I-166, (R)-2-(2-(1-((2,2-difluorobenzo[d][1,3]dioxol-4-yl)methyl)-2-(trifluoromethyl)-1H-benzo[d]imidazole-5-carboxamido)-2-(4-(ethylsulfonyl)phenyl)ethoxy)acetic acid] |

Further lines, the compound ahead of its results:

| SMILES | IC50 [1] | Ki [2] |
| --- | --- | --- |
| CCS(=O)(=O)c1ccc([C@@H](CO)NC(=O)c2ccc3c(c2)nc(C(F)(F)F)n3Cc2cccc3c2OC(F)(F)O3)nc1 [I-130.2, (S)-1-((2,2-difluorobenzo[d][1,3]dioxol-4-yl)methyl)-N-(1-(5-(ethylsulfonyl)pyridin-2-yl)-2-hydroxyethyl)-2-(trifluoromethyl)-1H-benzo[d]imidazole-5-carboxamide] | < 100 nM | < 100 nM |
| CS(=O)(=O)c1ccc([C@H](CO)NC(=O)c2ccc3c(c2)nc(C2CC2)n3Cc2cccc3c2OC(F)(F)O3)cc1 [I-21, (R)-2-cyclopropyl-1-((2,2-difluorobenzo[d][1,3]dioxol-4-yl)methyl)-N-(2-hydroxy-1-(4-(methylsulfonyl)phenyl)ethyl)-1H-benzo[d]imidazole-5-carboxamide] | < 100 nM | < 100 nM |
| CCS(=O)(=O)c1ccc([C@H](CO)NC(=O)c2ccc3c(c2)nc(C(F)(F)F)n3Cc2cccc3c2OC(F)(F)O3)cc1 [I-11.1, (R)-1-((2,2-difluorobenzo[d][1,3]dioxol-4-yl)methyl)-N-(1-(4-(ethylsulfonyl)phenyl)-2-hydroxyethyl)-2-(trifluoromethyl)-1H-benzo[d]imidazole-5-carboxamide] | < 100 nM | < 100 nM |
| CCS(=O)(=O)c1ccc(CNC(=O)c2ccc3c(c2)nc(C2(F)CC2)n3Cc2cccc3c2OC(F)(F)O3)cc1 [I-27, 1-((2,2-difluorobenzo[d][1,3]dioxol-4-yl)methyl)-N-(4-(ethylsulfonyl)benzyl)-2-(1-fluorocyclopropyl)-1H-benzo[d]imidazole-5-carboxamide] | < 100 nM | < 100 nM |
| CS(=O)(=O)c1ccc(CNC(=O)c2ccc3c(c2)nc(C2(F)CC2)n3Cc2cccc3c2OC(F)(F)O3)nc1 [I-68, 1-((2,2-difluorobenzo[d][1,3]dioxol-4-yl)methyl)-2-(1-fluorocyclopropyl)-N-((5-(methylsulfonyl)pyridin-2-yl)methyl)-1H-benzo[d]imidazole-5-carboxamide] | < 100 nM | < 100 nM |
| CCS(=O)(=O)c1ccc(CNC(=O)c2ccc3c(c2)nc(C(C)(C)OC)n3Cc2cccc3c2OC(F)(F)O3)cc1 [I-54, 1-((2,2-difluorobenzo[d][1,3]dioxol-4-yl)methyl)-N-(4-(ethylsulfonyl)benzyl)-2-(2-methoxypropan-2-yl)-1H-benzo[d]imidazole-5-carboxamide] | < 100 nM | < 100 nM |
| N#Cc1ccc(CC(=O)Nc2ccc3c(c2)nc(C(F)(F)F)n3Cc2cccc3c2OC(F)(F)O3)cc1 [I-6, 2-(4-cyanophenyl)-N-(1-((2,2-difluorobenzo[d][1,3]dioxol-4-yl)methyl)-2-(trifluoromethyl)-1H-benzo[d]imidazol-5-yl)acetamide] | > 1000 nM | < 100 nM |
| CCS(=O)(=O)c1ccc(CNC(=O)c2ccc3c(c2)nc([C@@H]2C[C@H]2C#N)n3Cc2cccc3c2OC(F)(F)O3)cc1 [I-57, 2-((1R,2R)-2-cyanocyclopropyl)-1-((2,2-difluorobenzo[d][1,3]dioxol-4-yl)methyl)-N-(4-(ethylsulfonyl)benzyl)-1H-benzo[d]imidazole-5-carboxamide] | < 100 nM | < 100 nM |
| CCS(=O)(=O)c1ccc(CNC(=O)c2ccc3c(c2)nc(C(F)(F)F)n3[C@@H](C)c2cccc(C#N)c2)cc1 [I-93.1, (S)-1-(1-(3-cyanophenyl)ethyl)-N-(4-(ethylsulfonyl)benzyl)-2-(trifluoromethyl)-1H-benzo[d]imidazole-5-carboxamide] | < 100 nM | < 100 nM |
| COC(=O)CS(=O)(=O)c1ccc(CNC(=O)c2ccc3c(c2)nc(C(F)(F)F)n3Cc2cccc3c2OC(F)(F)O3)cc1 [I-53, methyl 2-((4-((1-((2,2-difluorobenzo[d][1,3]dioxol-4-yl)methyl)-2-(trifluoromethyl)-1H-benzo[d]imidazole-5-carboxamido)methyl)phenyl)sulfonyl)acetate] | 100 to 1000 nM | < 100 nM |
| CNS(=O)(=O)c1ccc(CNC(=O)c2ccc3c(c2)nc(C2CC2)n3Cc2cccc3c2OC(F)(F)O3)cc1 [I-35, 2-cyclopropyl-1-((2,2-difluorobenzo[d][1,3]dioxol-4-yl)methyl)-N-(4-(N-methylsulfamoyl)benzyl)-1H-benzo[d]imidazole-5-carboxamide] | < 100 nM | < 100 nM |
| CCS(=O)(=O)c1ccc(CNC(=O)c2ccc3c(c2)nc(C(F)(F)F)n3Cc2cccc(C(=O)OC)c2)cc1 [I-99, methyl 3-((5-((4-(ethylsulfonyl)benzyl)carbamoyl)-2-(trifluoromethyl)-1H-benzo[d]imidazol-1-yl)methyl)benzoate] | 100 to 1000 nM | < 100 nM |
| CCS(=O)(=O)c1ccc([C@H](CO)NC(=O)c2ccc3c(c2)nc(C(F)(F)F)n3Cc2cccc3c2OC(F)(F)O3)nc1 [I-130.1, (R)-1-((2,2-difluorobenzo[d][1,3]dioxol-4-yl)methyl)-N-(1-(5-(ethylsulfonyl)pyridin-2-yl)-2-hydroxyethyl)-2-(trifluoromethyl)-1H-benzo[d]imidazole-5-carboxamide] | < 100 nM | < 100 nM |
| CCS(=O)(=O)c1ccc(CNC(=O)c2ccc3c(c2)nc(C(F)(F)F)n3Cc2cncc3[nH]ccc23)cc1 [I-100, 1-((1H-pyrrolo[2,3-c]pyridin-4-yl)methyl)-N-(4-(ethylsulfonyl)benzyl)-2-(trifluoromethyl)-1H-benzo[d]imidazole-5-carboxamide] | 100 to 1000 nM | < 100 nM |
| CCS(=O)(=O)c1ccc([C@H](COC)NC(=O)c2ccc3c(c2)nc(C2(F)CC2)n3Cc2cccc3c2OC(F)(F)O3)cc1 [I-61, (R)-1-((2,2-difluorobenzo[d][1,3]dioxol-4-yl)methyl)-N-(1-(4-(ethylsulfonyl)phenyl)-2-methoxyethyl)-2-(1-fluorocyclopropyl)-1H-benzo[d]imidazole-5-carboxamide] | < 100 nM | < 100 nM |

Source: patent US10829481B2, “Benzimidazole derivatives as modulators of ROR-gamma” (Vitae Pharmaceuticals, LLC, priority 2016, dated 2020)
